Laboratory results as given in PubChem BioAssay AID1919003 (Molecular Pharmacology Branch, DTP, NCI, 2023).

System: 786-0 complex spheroids with HUVEC/MSC, growth % test/control
Experiment: Anticancer human tumor 786-0 cell line growth inhibition [AhR];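 note: compound exposure lasted seven days before the read-out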
Conditions: for IC50: curve of first compound; for viability, T/C: stronger effect = lower value; active = viability on the fitted dose curve at most 10% of control; inactive = the rest
Procedure, shortened: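 Spheroids combined tumor cells with HUVEC endothelial cells and human MSCs as stroma. AhR antagonists were paired with standard or investigational drugs, each dosed in half-log steps down from near clinical Cmax, or from 10 microM where Cmax was unknown.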

COc1cc(Nc2ncc3c(n2)-c2ccc(Cl)cc2C(c2c(F)cccc2OC)=NC3)ccc1C(=O)O + CC(CO)NC(=O)c1cc(-c2ccc(Cl)cc2)nn(-c2cnn(C)c2)c1=O
inactive: viability, T/C (second compound 0.1 µM, first compound 0.0316 µM) 101% | viability, T/C (second compound 0.1 µM, first compound 0.1 µM) 96.8% | viability, T/C (second compound 0.1 µM, first compound 0.316 µM) 99.9% | viability, T/C (second compound 0.1 µM, first compound 1 µM) 82% | viability, T/C (second compound 0.1 µM, first compound 3.16 µM) 46.4% | viability, T/C (second compound 0.1 µM, first compound 10 µM) 23.9% | viability, T/C (second compound 0.316 µM, first compound 0.0316 µM) 106% | viability, T/C (second compound 0.316 µM, first compound 0.1 µM) 100% | viability, T/C (second compound 0.316 µM, first compound 0.316 µM) 107% | viability, T/C (second compound 0.316 µM, first compound 1 µM) 84.7% | viability, T/C (second compound 0.316 µM, first compound 3.16 µM) 43.2% | viability, T/C (second compound 0.316 µM, first compound 10 µM) 19.8% | viability, T/C (second compound 1 µM, first compound 0.0316 µM) 96.8% | viability, T/C (second compound 1 µM, first compound 0.1 µM) 103% | viability, T/C (second compound 1 µM, first compound 0.316 µM) 108% | viability, T/C (second compound 1 µM, first compound 1 µM) 80.2% | viability, T/C (second compound 1 µM, first compound 3.16 µM) 44% | viability, T/C (second compound 1 µM, first compound 10 µM) 20.3% | viability, T/C (second compound 3.16 µM, first compound 0.0316 µM) 107% | viability, T/C (second compound 3.16 µM, first compound 0.1 µM) 93.2% | viability, T/C (second compound 3.16 µM, first compound 0.316 µM) 104% | viability, T/C (second compound 3.16 µM, first compound 1 µM) 87.9% | viability, T/C (second compound 3.16 µM, first compound 3.16 µM) 41.1% | viability, T/C (second compound 3.16 µM, first compound 10 µM) 19.9% | viability, T/C (second compound 10 µM, first compound 0.0316 µM) 92.3% | viability, T/C (second compound 10 µM, first compound 0.1 µM) 86.7% | viability, T/C (second compound 10 µM, first compound 0.316 µM) 101% | viability, T/C (second compound 10 µM, first compound 1 µM) 85% | viability, T/C (second compound 10 µM, first compound 3.16 µM) 46.2% | viability, T/C (second compound 10 µM, first compound 10 µM) 19.5%
2550 nM: IC50 (second compound 1 µM)
2790 nM: IC50 (second compound 0.1 µM)
2600 nM: IC50 (second compound 0.316 µM)
2540 nM: IC50 (second compound 3.16 µM)
2820 nM: IC50 (second compound 10 µM)

O=C(C=Cn1cnc(-c2cc(C(F)(F)F)cc(C(F)(F)F)c2)n1)NNc1cnccn1 + Cc1ccccc1N=Nc1ccc(NC(=O)c2ccnn2C)c(C)c1
inactive: viability, T/C (second compound 0.1 µM, first compound 0.00949 µM) 103% | viability, T/C (second compound 0.1 µM, first compound 0.03 µM) 108% | viability, T/C (second compound 0.1 µM, first compound 0.0949 µM) 104% | viability, T/C (second compound 0.1 µM, first compound 0.3 µM) 59.5% | viability, T/C (second compound 0.1 µM, first compound 0.949 µM) 41.4% | viability, T/C (second compound 0.1 µM, first compound 3 µM) 15.4% | viability, T/C (second compound 0.316 µM, first compound 0.00949 µM) 109% | viability, T/C (second compound 0.316 µM, first compound 0.03 µM) 105% | viability, T/C (second compound 0.316 µM, first compound 0.0949 µM) 115% | viability, T/C (second compound 0.316 µM, first compound 0.3 µM) 64.7% | viability, T/C (second compound 0.316 µM, first compound 0.949 µM) 38% | viability, T/C (second compound 0.316 µM, first compound 3 µM) 17.3% | viability, T/C (second compound 1 µM, first compound 0.00949 µM) 113% | viability, T/C (second compound 1 µM, first compound 0.03 µM) 100% | viability, T/C (second compound 1 µM, first compound 0.0949 µM) 104% | viability, T/C (second compound 1 µM, first compound 0.3 µM) 55.8% | viability, T/C (second compound 1 µM, first compound 0.949 µM) 38% | viability, T/C (second compound 1 µM, first compound 3 µM) 16.4% | viability, T/C (second compound 3.16 µM, first compound 0.00949 µM) 91.6% | viability, T/C (second compound 3.16 µM, first compound 0.03 µM) 92.7% | viability, T/C (second compound 3.16 µM, first compound 0.0949 µM) 101% | viability, T/C (second compound 3.16 µM, first compound 0.3 µM) 63.7% | viability, T/C (second compound 3.16 µM, first compound 0.949 µM) 38.6% | viability, T/C (second compound 3.16 µM, first compound 3 µM) 18.2% | viability, T/C (second compound 10 µM, first compound 0.00949 µM) 88.4% | viability, T/C (second compound 10 µM, first compound 0.03 µM) 84.8% | viability, T/C (second compound 10 µM, first compound 0.0949 µM) 74.5% | viability, T/C (second compound 10 µM, first compound 0.3 µM) 56.4% | viability, T/C (second compound 10 µM, first compound 0.949 µM) 34.8% | viability, T/C (second compound 10 µM, first compound 3 µM) 17.3%
520 nM: IC50 (second compound 0.316 µM)
542 nM: IC50 (second compound 0.1 µM)
424 nM: IC50 (second compound 10 µM)
470 nM: IC50 (second compound 1 µM)
566 nM: IC50 (second compound 3.16 µM)
